What all share (type): cell-based, rat
Experiment [1] concerns protein/DNA complex with Fragment 127 of the MHC class I 5′-flanking region. Kind of experiment: Gel shift (EMSA) with downstream 127 class I probe, extracts from treated FRTL-5 cells. Particulars: 5H cells treated 48 hours. Here is the method:
Cells were grown in 6H medium with 5 % calf serum for 6-7 days to 70-80% confluence, then shifted to 5H medium with 5 % calf serum for 5 days. TSH (1×10^−10 M), gamma-interferon (100 U/ml), MMI (5 mM), and different concentrations of MMI derivatives or tautomeric cyclic thiones (0.0001 to 10 mM) were added as appropriate for […]. Cells were then harvested and extracts were made by a modification of a method of Dignam, J., et al. Methods in Enzymology, 101:582-598 (1983). In brief, cells were harvested by scraping after being washed twice with cold phosphate-buffer saline (PBS). Subsequently they were pelleted, washed in cold PBS and then pelleted again. The pellet was resuspended in Dignam buffer C (20 mM Hepes buffer at pH 7.9, 1.5 mM MgCl2, 0.42 M NaCl, 25% glycerol, 0.5 mM dithiotreitol (DTT), 0.5 mM phenylmethylsulfonylfluoride (PMSF), 1 […] pepstatin). The final NaCl concentration was adjusted on the basis of cell pellet volume to 0.42 M and cells were lysed by repeated cycles of freezing and thawing. Extracts were then centrifuged at 10,000×g at 4° C. for 20 min. The supernatant was recovered, aliquoted and stored at −70° C.
Binding reactions were performed in a volume of 20 μl for 30 min at room temperature. The typical reaction mixture contained 1.5 fmol of ^32P DNA, 3 μg of cell extracts, 1 to 3 μg of poly (dI-dC) in 10 mM Tris-Cl (pH 7.9), 1 mM MgCl2, 1 mM DTT, 1 mM ethylenediamine tetra acetic acid (EDTA), and 5 % glycerol. After incubation, reaction mixtures were subjected to electrophoresis in 4% polyacrylamide gels for 90-120 min at 160 V in 0.5× TBE (Sambrook, J., et al., Molecular Cloning: A Laboratory Manual, 2nd ed. Cold Spring Harbor Press, NY, 2: 11.23-11.44 (1989)), then dried and autoradiographed. Probes were labeled with [α32P] deoxy CTP by Klenow enzyme (In Vitro labeling kit, Amersham) following the manufacturer's instructions, or by [γ^32P] ATP using T4 polynucleotide kinase. Labeled probes were then purified either through G-50 columns (5 prime→3 Prime) or on an 8% polyacrylamide gel.
FIG. 3 denotes the sequence of the downstream region of the PD1 promoter. The location of enhancer A (−180 to −170 bp), the interferon response element (IRE; −161 to −150 bp), and the cAMP response element (CRE; −107 to −100 bp) are noted. The downstream silencer is between −127 and −80 bp (Saji, et al., ibid, 20096-20107 (1997)). Using a 127 bp probe, −125 to +1 bp, MMI (lane 4) or TSH (lane 10) induce the formation of a rapidly migrating protein/DNA complex (FIG. 4) which is clearly evident 24 to 48 h after SH cells are treated. MMI derivatives can also increase this complex, as illustrated for compound 8 in FIG. 4 (lanes 1 to 3). The time most suitable for measurement is 24 to 48 h (FIG. 4) the complex can be quantitated by comparison to control (lane 7 or 9) using densitometry or the phosphoimager as noted earlier. In this case, the increase over control (set at 1) is measured in arbitrary units relative to the maximal increase induced by 5 mM MMI which is arbitrarily set at 10. The results using all 11 compounds in Table 1, each added to cells at different concentrations 48 hours before extracts were prepared, are summarized in Table 3.
Background: Mobility shift assays separate free from complexed probe on a gel.

For experiment [2], the system named is MHC class II antigen expression. Kind of experiment: Flow cytometry of IFN-increased class II antigen expression in FRTL-5 cells. Here is the method: […] 13 and 14. Cells were stained with a fluorescein isothiocyanate conjugated class II-specific monoclonal antibody to RT1.B (clone OX-6, Sera Labs, UK) for 60 min at 4° C., washed twice with Dulbecco's phosphate buffered saline, and subjected to laser flow cytometry.
(§1) In this experiment 10^6 cells were incubated with MHC class II or MHC class I-specific antibodies as described (Montani, V., et al., ibid (1998b); Saji, M., et al., ibid (1992a); Balducci-Silano, P. L., et al., Endocrinology 139:2309-2313 (1998)). After 30 min on ice, cells were washed with phosphate buffered saline at pH 7.4 and incubated for 30 min with fluorescein-isothiocyanate (FITC)-conjugated antibodies then analyzed by flow cytometry on a FACScan Cytometer using CellQuest software (Becton Dickinson).
(§2) The concentration needed to achieve suppression of the interferon induced class I or class II surface expression was determined by testing different concentrations of the compounds (Table 18). Like all other assays, the order of effectiveness was compound 10>11>7 or 8>2>MMI>3.
On the technique in general: A flow cytometer gives signals particle by particle.

In experiment [3] the test system is MHC class I antigen expression. Description: Flow cytometry of IFN-increased class I antigen expression in FRTL-5 cells. Particulars: 100 U/ml γ-interferon, 6H medium (TSH), 40 hours. Here is the method:
as §1, §2

The subject of experiment [4] is Y box protein (TSEP-1) RNA. Description: Northern analysis of Y box protein (TSEP-1) RNA levels in FRTL-5 cells. Particulars: 40 hours. An excerpt:
Whereas γ-IFN decreases Y box protein RNA levels in FRTL-5 cells, MMI can reverse this action (FIG. 16). […] The rat TSEP-1 probe was the clone 31 insert, residues 5 to 1395 of the rat TSEP-1 nucleotide sequence reported (Ohmori, M., et al., ibid (1996)); rat β-actin was kindly provided by Dr. B. Paterson (NCI, Bethesda, Md.). Radiolabeling of all probes, hybridization (0.5-1.0×10^6cpm/ml), and washing were as described (Isozaki, O., et al., ibid (1989); Saji, M., et al., ibid (1992); Ohmori, M., et al., ibid (1996)).
The ability of the compounds to reverse the γ-IFN-induced decrease in TSEP-1 RNA levels is once again 10>11>7 or 8>2>MMI>3. This mimics data in all other assays.

The subject of another experiment is MHC class I RNA. Description: Northern analysis of MHC class I RNA levels in FRTL-5 cells. Particulars: 40 hours; for inhibition at 1000 µM / inhibition at 5000 µM: Rattus norvegicus, FRTL-5; for inhibition at 1000 µM: 1 mM; for inhibition at 5000 µM: 5 mM.
Where [5] appears, read: 100 U/ml γ-interferon, 6H medium (TSH), read-out: % inhibition of class I RNA expression (γ-interferon-treated).
[6] abbreviates: basal, 5H medium, read-out: % inhibition of class I RNA expression (basal).

The structures appear in SMILES notation. Where two headings read alike, the source gives them in different places.

Usually inhibition stands for the drop in the measured response relative to a control, in per cent. For `Cn1ccnc1S` [Compound 1, 1-Methylimidazole-2-thiol], the “% increase over control relative to the maximal (5 mM) MMI-increased silencer complex which is set at 10” value turned out to be 0% in experiment [1] (10 μM), 0% in experiment [1] (100 μM), 2 ± 1% in experiment [1] (1 mM) and 10% in experiment [1] (5 mM). For the same compound, the “endogenous class II antigen expression on the cell surface (flow cytometry, FIG. 12)” value in experiment [2] (5 mM MMI with 100 U/ml γ-IFN, 48 hours) is “decreased endogenous class II antigen expression”. The “Concentration to inhibit IFN-increased antigen expression, Class II” value in experiment [2] (100 U/ml γ-interferon, 6H medium (TSH), 40 hours) was determined as 5 mM. In addition, in experiment [3], the “Concentration to inhibit IFN-increased antigen expression, Class I” value is recorded as 5 mM. The “Y box protein (TSEP-1) RNA level, compound +γIFN” value in experiment [4] (100 μM compound + γIFN) is given as 42 ± 7%; in experiment [4] (1 mM compound + γIFN), 87 ± 7%; in experiment [4] (5 mM compound + γIFN), 149 ± 12%. In addition, the “Y box protein (TSEP-1) RNA level, compound ALONE” value in experiment [4] (100 μM compound alone) is given as 105 ± 8%; in experiment [4] (1 mM compound alone) it was 104 ± 12%; in experiment [4] (5 mM compound alone), 115 ± 9%. The “% inhibition of class I RNA expression (γ-interferon-treated)” value in the experiment with MHC class I RNA (100 μM, 100 U/ml γ-interferon, 6H medium (TSH)) is recorded as “None”. The “% inhibition of class I RNA expression (basal)” value in the experiment with MHC class I RNA (100 μM, basal, 5H medium) is given as “None”. The inhibition at 1000 µM in the experiment on MHC class I RNA (setting [5]) amounted to 29 ± 7%; with MHC class I RNA (setting [6]), 25 ± 10%. Besides, the inhibition at 5000 µM in the experiment with MHC class I RNA (setting [5]) was 52 ± 15%; in the experiment with MHC class I RNA (setting [6]), 42 ± 8%.

Source of the values: patent US6365616B1, “Methimazole derivatives and tautomeric cyclic thiones to treat autoimmune diseases” (Sentron Medical, Inc., priority 1998, dated 2002).
